Experimental data from US9981959B2, “Thiazolyl and oxazolyl urea, thiourea, guanidine and cyanoguanidine compounds as TrkA kinase inhibitors” (Array BioPharma Inc., priority 2012, dated 2018).

Molecular target: TrkA (Homo sapiens, UniProt P04629)
Assay: TrkA LanthaScreen Eu Kinase Binding Assay
Set-up: 6HIS tagged cytoplasmic domain from Invitrogen, Cat. No. PV3144; purchased Invitrogen PV3144
Details: averaged IC50; TR-FRET binding, 60 min, 22° C.; read-out: TrkA enzyme IC50
Method: TrkA binding activity was determined in a TrkA LanthaScreen™ Eu Kinase Binding Assay. 5 nM His-tagged recombinant human TrkA (6HIS tagged cytoplasmic domain from Invitrogen, Cat. No. PV3144) was incubated with 4 nM Alexa-Fluor® Tracer 236 (Invitrogen Cat. No. PV5592), 2 nM biotinylated anti-His (Invitrogen Cat. No. PV6090), and 2 nM europium-labeled Streptavidin (Invitrogen Cat. No. PV5899), in buffer (25 mM MOPS, pH 7.5, 5 mM MgCl2, 0.005% Triton X-100). Three fold serial dilutions of compounds of the invention in DMSO were added to a final percentage of 2% DMSO. After 60-minute incubation at 22° C., the reaction was measured using the EnVision mutlimode plate reader (PerkinElmer) via TR-FRET dual wavelength detection at […]. The percent of control was calculated using a ratiometric emission factor. The IC50 values were determined by fitting a four parameter model to the percent of control data.
Table A provides averaged IC50 values for compounds of the invention when tested in the assay of Example A, where A represents an averaged IC50 value <100 nM; and B represents an averaged IC50 value from 100 to 1,000 nM.

Chain of TrkA (P04629 440-796 limits assumed): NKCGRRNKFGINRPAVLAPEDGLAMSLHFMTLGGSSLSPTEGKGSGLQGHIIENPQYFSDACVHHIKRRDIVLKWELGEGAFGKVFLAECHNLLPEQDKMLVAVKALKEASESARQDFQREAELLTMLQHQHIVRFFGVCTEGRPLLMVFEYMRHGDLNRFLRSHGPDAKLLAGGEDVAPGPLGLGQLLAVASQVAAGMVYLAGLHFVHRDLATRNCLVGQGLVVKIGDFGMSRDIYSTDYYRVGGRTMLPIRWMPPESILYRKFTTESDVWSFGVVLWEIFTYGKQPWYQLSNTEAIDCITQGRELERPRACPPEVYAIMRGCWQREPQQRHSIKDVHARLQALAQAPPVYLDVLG

Structure (SMILES)	IC50 [nM]
Cc1nc(-c2ccccc2)c(NC(=O)Nc2c(C)c(-c3cnn(C)c3)nn2-c2ccccc2)s1 [Example 1, 1-(1′,4-dimethyl-1-phenyl-1H,1′H-[3,4′-bipyrazol]-5-yl)-3-(2-methyl-4-phenylthiazol-5-yl)urea]	< 100
Cc1nc(-c2ccccc2)c(NC(=O)Nc2c(C)c(-c3cnn(C)c3)nn2-c2ccccc2)o1 [Example 3, 1-(1′,4-dimethyl-1-phenyl-1H, 1′H-[3,4′-bipyrazol]-5-yl)-3-(2-methyl-4-phenyloxazol-5-yl)urea]	100 to 1000
Cc1c(OCCO)nn(-c2ccccc2)c1NC(=O)Nc1sc(C(F)(F)F)nc1-c1ccccc1 [Example 5, 1-(3-(2-hydroxyethoxy)-4-methyl-1-phenyl-1H-pyrazol-5-yl)-3-(4-phenyl-2-(trifluoromethyl)thiazol-5-yl)urea]	< 100
Cc1c(C(N)=O)nn(-c2ccccc2)c1NC(=O)Nc1sc(C(F)(F)F)nc1-c1ccccc1 [Example 4, 4-methyl-1-phenyl-5-(3-(4-phenyl-2-(trifluoromethyl)thiazol-5-yl)ureido)-1H-pyrazole-3-carboxamide]	100 to 1000
